# Laboratory results taken from US20170348277A1, “CANNABINOID FORMULATION INCLUDING A V[…] OCULAR DELIVERY OF THE SAME” (priority 2017, published 2017).
# Experiments:
# [1] = Vasodilators studied for increasing the rate of delivery of cannabinoids to a desired site of action; conditions: vasodilator in cannabinoid formulation
# From the text: Various vasodilators have been studied that have the desired effect of increasing the rate of delivery of cannabinoids to a desired site of action. […] The classes of vasodilators that may be substituted for the MSM of the present invention either in a preferred combination or in isolation. These classes include: • Alpha-adrenoceptor antagonists (alpha-blockers) • Angiotensin converting enzyme (ACE) inhibitors • Angiotensin receptor blockers (ARBs) • Beta2-adrenoceptor agonists (β2-agonists) • Calcium-channel blockers (CCBs) • Centrally acting sympatholytics • Direct acting vasodilators • Endothelin receptor antagonists • Ganglionic blockers • Nitrodilators • Phosphodiesterase inhibitors • Potassium-channel openers • Renin inhibitors
# [2] = oral; cited from earlier work
substance,measurement,setting,value
methylsulfonylmethane [MSM],increasing the rate of delivery of cannabinoids to a desired site of action,[1],sufficiently effective
same,safe dose when taken orally,[2],up to 2 gm/kg of body weight per day
